Converted amounts (≈) assume the structure as drawn.

In data set [1] the target is T1, Follicle-stimulating hormone receptor (Homo sapiens) (UniProt P23945).
T1 sequence (whole entry): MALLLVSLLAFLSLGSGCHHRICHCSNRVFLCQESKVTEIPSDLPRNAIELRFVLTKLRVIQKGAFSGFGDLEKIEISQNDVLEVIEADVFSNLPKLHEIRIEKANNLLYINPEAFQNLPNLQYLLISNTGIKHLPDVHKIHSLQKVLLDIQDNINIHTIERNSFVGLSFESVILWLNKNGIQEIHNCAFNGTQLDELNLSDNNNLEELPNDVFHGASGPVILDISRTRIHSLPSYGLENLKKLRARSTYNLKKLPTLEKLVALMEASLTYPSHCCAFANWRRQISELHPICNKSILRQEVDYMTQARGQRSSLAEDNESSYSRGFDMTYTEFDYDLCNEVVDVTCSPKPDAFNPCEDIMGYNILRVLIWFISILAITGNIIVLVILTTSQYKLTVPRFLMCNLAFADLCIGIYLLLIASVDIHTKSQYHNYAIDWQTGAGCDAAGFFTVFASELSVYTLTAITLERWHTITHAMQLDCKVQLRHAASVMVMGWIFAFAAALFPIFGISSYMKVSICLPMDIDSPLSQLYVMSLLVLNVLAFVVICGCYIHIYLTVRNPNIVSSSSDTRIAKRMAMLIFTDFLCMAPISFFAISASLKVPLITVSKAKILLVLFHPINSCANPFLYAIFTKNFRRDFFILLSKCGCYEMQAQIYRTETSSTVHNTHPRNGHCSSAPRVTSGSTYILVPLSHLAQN
As to the kind of experiment: Positive allosteric modulation of human FSH receptor expressed in CHO cells assessed as effect on FSH-induced cAMP accumulation at 12 uM after 1 hr by HTRF assay relative to FSH. Format: functional, cell-based.

Data set [2] is described as follows: Clearance in human microsomes. Format: ADME.
Data set [3] in a line: Clearance in rat microsomes. It counts as ADME.
A short description of data set [4]: Aqueous solubility of the compound at pH 7.4. Format: physicochemical.
Data set [5] is described as follows: Induction of estradiol production in rat primary granulosa cells after 24 hrs by ELISA relative to FSH. Format: functional.
Data set [6] deals with T2, Follicle-stimulating hormone receptor (Homo sapiens, UniProt P23945).
T2 sequence (P23945 whole entry): T1 sequence (whole entry)
As to the kind of experiment: Positive allosteric modulation of human FSH receptor expressed in CHO cells assessed as effect on FSH-induced cAMP accumulation after 1 hr by HTRF assay. It counts as functional, cell-based.

Data set [7] in a line: Induction of estradiol production in rat primary granulosa cells after 24 hrs by ELISA. It counts as functional.
Data set [8] in a line: Clearance in immature Sprague-Dawley rat at 0.2 mg/kg, iv. Set-up: dose 0.2 mg/kg, route intravenous. To be noted: in vivo. It counts as ADME, organism-based.
The nature of data set [9]: Volume of distribution at steady state in immature Sprague-Dawley rat at 0.2 mg/kg, iv. As to conditions: in vivo, read-out: Vdss. Format: ADME, organism-based. More on the design: dose 0.2 mg/kg, route intravenous.
The nature of data set [10]: Oral bioavailability in immature Sprague-Dawley rat at 0.5 mg/kg. To be noted: in vivo. Format: ADME, organism-based.
The target of data set [11] is T1, Follicle-stimulating hormone receptor (Homo sapiens). Put plainly: Positive allosteric modulation of human FSH receptor expressed in CHO cells assessed as effect on FSH-induced cAMP accumulation at 50 uM after 1 hr by HTRF assay relative to FSH. Format: functional, cell-based.

Turning to `Cc1ccccc1N1CCN(c2ccc(C(=O)NCCCN3CCCC3=O)cc2NC(=O)c2cccnc2)CC1`, in data set [1], the Activity worked out at 37%.
Take `Cc1ccccc1N1CCN(c2ccc(C(=O)NCCCN3CCCC3=O)cc2NC(=O)c2ccco2)CC1`: the values for the microsomal CLint in data set [2] and in data set [3] were 312 µL/min/mg and 233 µL/min/mg, respectively.
Compound `Cc1ccccc1N1CCN(c2ccc(C(=O)NCCCc3nn[nH]n3)cc2NC(=O)c2coc(C3CC3)n2)CC1` displayed a solubility in data set [4] of 160 µM (≈ 88.9 µg/mL). Moreover, the microsomal CLint in data set [2] worked out at 20 µL/min/mg; in data set [3], 18 µL/min/mg. In data set [5], this compound returned an Efficacy of 78%. In addition, the figures for the EC50 in data set [6] and in data set [7] were 89 nM and 170 nM, respectively. Besides, the clearance in data set [8] is 13.2 mL/min/kg. Further, the Vd in data set [9] stood at 5.46 L/kg. Moreover, in data set [10], the bioavailability came out at 21%.
For `Cc1ccccc1N1CCN(c2ccc(C(=O)NCCCN3CCCC3=O)cc2NC(=O)c2coc(C3CC3)n2)CC1C` (configuration not stated), the Activity in [11] came to 36%.
For the compound `Cc1ccc(N2CCN(c3ccc(C(=O)NCCCN4CCCC4=O)cc3NC(=O)c3coc(C4CC4)n3)CC2)cc1`, the Activity in data set [11] was 13%.
On to `Cc1ccccc1N1CCN(c2ccc(C(=O)N3CCC(N4CCCC4=O)CC3)cc2NC(=O)c2ccco2)CC1`, for which the Activity in [1] stood at 40%.
On to `Cc1ccccc1C1CCN(c2ccc(C(=O)NCCCN3CCCC3=O)cc2NC(=O)c2ccco2)CC1`, for which the Activity in data set [11] stood at 1%.
For the compound `Cc1ccccc1N1CCN(c2ccc(C(=O)NCCCN3CCCC3=O)cc2NC(=O)c2ccncc2)CC1`, the Activity in data set [1] amounted to 34%.
Regarding `O=C(NCCCN1CCCC1=O)c1ccc(N2CCNCC2)c(NC(=O)c2ccco2)c1`, the Activity in data set [11] turned out to be 1%.
With `Cc1ccccc1N1CCN(c2ccc(C(=O)NCCCN3C(=O)CCC3=O)cc2NC(=O)c2ccco2)CC1`, the results for the microsomal CLint in data set [2] and in [3] were 33 µL/min/mg and 38 µL/min/mg, respectively. The EC50 in data set [6] was determined as 184 nM.
Regarding `Cc1ccccc1N1CCN(c2ccc(C(=O)N[C@@H]3CCC[C@@H](O)[C@H]3O)cc2NC(=O)c2coc(C3CC3)n2)CC1`, the results for the intrinsic metabolic clearance (microsomal CLint) in data set [2] and in data set [3] were 72 µL/min/mg and 13 µL/min/mg, respectively. Besides, the Efficacy in data set [5] amounted to 81%. For the same compound, the figures for the EC50 in data set [6] and in [7] were 53 nM and 5 nM, respectively. This compound returned a clearance in data set [8] of 3.41 mL/min/kg. Besides, in data set [9], the Vd came out at 1.65 L/kg. This compound also gave a bioavailability in [10] of 23%.
Consider `Cc1ccccc1N1CCN(c2ccc(C(=O)NCCCN3CCOC3=O)cc2NC(=O)c2ccco2)CC1`, for which the results for the microsomal CLint in data set [2] and in data set [3] were 59 µL/min/mg and 25 µL/min/mg, respectively. The EC50 in data set [6] turned out to be 28 nM.
The matching figures for `Cc1ccccc1N1CCN(c2ccc(C(=O)NCc3cccc(C(N)=O)c3)cc2NC(=O)c2ccco2)CC1`: 54 µL/min/mg, 31 µL/min/mg and 46 nM.
For the compound `O=C(NCCCN1CCCC1=O)c1ccc(N2CCN(c3ccccn3)CC2)c(NC(=O)c2ccco2)c1`, the Activity in data set [11] was found to be 20%.
For the compound `Cc1ccccc1N1CCN(c2ccc(C(=O)NCCCN3CCCC3=O)cc2NS(=O)(=O)c2ccco2)CC1`, the Activity in data set [1] was 10%.
As to `Cc1ccccc1N1CCN(c2ccc(C(=O)NCCCN3CCCC3=O)cc2NC(=O)c2coc(C3CC3)n2)CC1`, the microsomal CLint in [2] stood at 260 µL/min/mg; in data set [3], 225 µL/min/mg. Further, the EC50 in data set [6] amounted to 99 nM.
On to `COc1ccccc1N1CCN(c2ccc(C(=O)NCCCN3CCCC3=O)cc2NC(=O)c2ccco2)CC1`, for which the Activity in [11] was determined as 20%.
`Cc1ccccc1N1CCN(c2ccc(CNCCCN3CCCC3=O)cc2NC(=O)c2coc(C3CC3)n2)CC1`: the Activity in data set [1] is 4.5%.
